# Data published in US20110015162A1, “15,16-Methylene-17-hydroxy-19-nor-21-carboxylic acid-steroid Y-lactone derivative, use thereof and medicinal products containing the derivative” (Bayer Schering Pharma Aktiengesellschaft, priority 2007, published 2011).
# Like-named read-outs stand apart in the source and are kept apart here.
# Tests used:
# androgen receptor = target: T1, androgen receptor (Homo sapiens, UniProt P10275); assay: Androgen receptor binding test; set-up: expressed in transfected cells; conditions: reference substance 3H-testosterone
# T1 sequence (P10275 1-920): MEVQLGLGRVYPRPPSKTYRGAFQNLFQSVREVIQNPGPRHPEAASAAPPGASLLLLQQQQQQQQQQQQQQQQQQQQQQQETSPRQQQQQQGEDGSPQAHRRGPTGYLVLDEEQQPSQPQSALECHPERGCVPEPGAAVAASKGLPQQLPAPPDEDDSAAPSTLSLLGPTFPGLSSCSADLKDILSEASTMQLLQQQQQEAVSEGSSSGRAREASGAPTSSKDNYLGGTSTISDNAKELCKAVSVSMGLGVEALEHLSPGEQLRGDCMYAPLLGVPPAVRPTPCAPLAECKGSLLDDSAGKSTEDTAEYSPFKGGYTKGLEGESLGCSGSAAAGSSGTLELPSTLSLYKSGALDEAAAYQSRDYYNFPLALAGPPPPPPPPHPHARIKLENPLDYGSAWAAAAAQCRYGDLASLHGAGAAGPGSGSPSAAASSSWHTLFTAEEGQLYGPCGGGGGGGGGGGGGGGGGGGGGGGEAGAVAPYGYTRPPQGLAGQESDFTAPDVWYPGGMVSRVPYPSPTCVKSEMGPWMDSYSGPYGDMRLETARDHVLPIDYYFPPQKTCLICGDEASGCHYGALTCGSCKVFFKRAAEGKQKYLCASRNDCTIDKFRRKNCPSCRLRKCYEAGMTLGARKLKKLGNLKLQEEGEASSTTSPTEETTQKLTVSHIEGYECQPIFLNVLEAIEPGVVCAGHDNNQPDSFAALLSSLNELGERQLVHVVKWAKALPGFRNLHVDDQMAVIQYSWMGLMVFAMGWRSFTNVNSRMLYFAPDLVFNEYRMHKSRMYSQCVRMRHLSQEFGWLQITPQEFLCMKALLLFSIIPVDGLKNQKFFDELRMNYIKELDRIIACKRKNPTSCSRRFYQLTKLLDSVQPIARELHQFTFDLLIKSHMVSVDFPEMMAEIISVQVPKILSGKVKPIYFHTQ
# [1] = target: T2, mineralocorticoid receptor (Homo sapiens, UniProt P08235); assay: Mineralocorticoid receptor binding test; set-up: made in house; host or cells: Hi5 insect cells (cytosol); conditions: reference substance 3H-aldosterone, cytosol from MR-expressing insect cells (Hi5)
# T2 sequence (P08235 1-984): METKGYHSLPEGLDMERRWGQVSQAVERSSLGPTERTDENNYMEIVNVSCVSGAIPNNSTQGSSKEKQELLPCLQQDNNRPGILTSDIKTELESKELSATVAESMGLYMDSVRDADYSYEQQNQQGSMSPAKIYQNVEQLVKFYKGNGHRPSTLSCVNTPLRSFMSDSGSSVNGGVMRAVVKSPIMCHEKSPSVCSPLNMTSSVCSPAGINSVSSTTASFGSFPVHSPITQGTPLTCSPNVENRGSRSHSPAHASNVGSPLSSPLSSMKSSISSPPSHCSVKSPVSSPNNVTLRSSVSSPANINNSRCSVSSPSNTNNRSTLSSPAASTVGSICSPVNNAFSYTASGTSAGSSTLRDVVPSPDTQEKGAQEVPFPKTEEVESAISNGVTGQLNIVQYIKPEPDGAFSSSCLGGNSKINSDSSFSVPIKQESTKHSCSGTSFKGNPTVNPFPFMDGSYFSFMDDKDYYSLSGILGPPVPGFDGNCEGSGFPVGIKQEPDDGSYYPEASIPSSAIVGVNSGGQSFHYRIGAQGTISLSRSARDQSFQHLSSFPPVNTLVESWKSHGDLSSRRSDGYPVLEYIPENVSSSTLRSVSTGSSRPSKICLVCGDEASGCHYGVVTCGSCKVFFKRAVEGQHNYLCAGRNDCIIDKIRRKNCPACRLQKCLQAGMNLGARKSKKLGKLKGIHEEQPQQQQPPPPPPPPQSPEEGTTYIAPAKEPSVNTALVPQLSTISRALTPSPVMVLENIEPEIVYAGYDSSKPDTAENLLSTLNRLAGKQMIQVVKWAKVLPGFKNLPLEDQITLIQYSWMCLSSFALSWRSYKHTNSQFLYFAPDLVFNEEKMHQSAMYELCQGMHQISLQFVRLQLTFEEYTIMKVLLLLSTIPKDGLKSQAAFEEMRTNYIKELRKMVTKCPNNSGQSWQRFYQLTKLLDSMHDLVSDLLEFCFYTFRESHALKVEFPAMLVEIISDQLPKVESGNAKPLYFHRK
# Protocol: Using cytosol from progesterone receptor-expressing insect cells (Hi5), competitive binding to the progesterone receptor was determined from the ability to displace ^3H-progesterone as reference substance from the receptor.
# 2. Mineralocorticoid Receptor Binding Test:
# The test was carried out as in 1, with the following modifications: cytosol from mineralocorticoid receptor-expressing insect cells (Hi5) was used, and the reference substance was ^3H-aldosterone.
# [2] = target: T2, mineralocorticoid receptor; assay: Antimineralocorticoid action by transactivation test (MDCK reporter cells); type: cell-based; set-up: expressed in transfected cells; host or cells: MDCK cells; conditions: for Emax: read-out: Mineralocorticoid receptor Antagonism efficacy;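 for Emax: percent inhibition of the aldosterone-stimulated reporter signal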;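 for Mineralocorticoid receptor Antagonism efficacy: percent inhibition of the aldosterone-stimulated reporter signal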
# Protocol: The test compounds were added eight hours later, and the cells were incubated with the compounds for 16 hours. The tests were carried out in triplicate. At the end of incubation the medium containing the effector was removed and replaced with lysis buffer. After luciferase assay substrate (Promega, #E1501) had been added, the 96-well plates were then put in a microplate luminometer (Pherastar, BMG Labtech), and the luminescence was measured. The IC50 values were evaluated using software for calculating dose-effect relations.
# 5. Determination of Antimineralocorticoid Action by Means of Transactivation Tests:
# The antimineralocorticoid activity of the test substances was determined as for the transactivation tests described above.
# The following modifications were undertaken: In this case reporter cell lines were used (MDCK cells) that express the human mineralocorticoid receptor, and transiently contain a reporter construct that contains luciferase under the control of a steroid hormone-responsive promoter.
structure (smiles),measurement,setting,value
"C[C@]12CC[C@H]3[C@@H](C=CC4=CC(=O)CC[C@@H]43)[C@@H]1[C@H]1C[C@H]1[C@@]21C=CC(=O)O1 [Example 13, 17β-Hydroxy-15α,16α-methylene-19-nor-17α-pregna-4,6,20(Z)-trien-3-one-21-carboxylic acid γ-lactone]",Androgen receptor Competition factor,androgen receptor,163.2
same,Mineralocorticoid receptor (MR) Competition factor,[1],1.6
same,IC50,"[2]; MDCK cells, with 1 nM aldosterone, read-out: Mineralocorticoid receptor Antagonism IC50",12 nM
same,Emax,"[2]; MDCK cells, with 1 nM aldosterone",116%
"C[C@@H]1CC2=CC(=O)CC[C@@H]2[C@H]2CC[C@@]3(C)[C@@H]([C@H]4C[C@H]4[C@@]34C=CC(=O)O4)[C@@H]21 [Example 14A, 17β-Hydroxy-7α-methyl-15α,16α-methylene-19-nor-17α-pregna-4,20(Z)-dien-3-one-21-carboxylic acid γ-lactone]",Androgen receptor Competition factor,androgen receptor,2.3
same,Mineralocorticoid receptor (MR) Competition factor,[1],1.3
same,IC50,[2],3 nM
same,Emax,[2]; MDCK,83%
"CC[C@@H]1CC2=CC(=O)CC[C@@H]2[C@H]2CC[C@@]3(C)[C@@H]([C@H]4C[C@H]4[C@@]34C=CC(=O)O4)[C@H]12 [Example 15A, 17β-Hydroxy-7α-ethyl-15α,16α-methylene-19-nor-17α-pregna-4,20(Z)-dien-3-one-21-carboxylic acid γ-lactone]",Androgen receptor Competition factor,androgen receptor,2.2
same,Mineralocorticoid receptor (MR) Competition factor,[1],0.8
same,IC50,[2],12 nM
same,Emax,[2]; MDCK,112%
"C=C[C@@H]1CC2=CC(=O)CC[C@@H]2[C@H]2CC[C@@]3(C)[C@@H]([C@H]4C[C@H]4[C@@]34C=CC(=O)O4)[C@@H]21 [Example 16A, 17β-Hydroxy-7α-vinyl-15α,16α-methylene-19-nor-17α-pregna-4;20(Z)-dien-3-one-21-carboxylic acid γ-lactone]",Androgen receptor Competition factor,androgen receptor,2.6
same,Mineralocorticoid receptor (MR) Competition factor,[1],2.0
same,IC50,[2],95 nM
same,Emax,[2]; MDCK,103%
"C[C@]12CC[C@H]3[C@H]([C@@H]1[C@H]1C[C@H]1[C@@]21C=CC(=O)O1)[C@H](C1CC1)CC1=CC(=O)CC[C@@H]13 [Example 17A, 17β-Hydroxy-7α-cyclopropyl-15α,16α-methylene-19-nor-17α-pregna-4,20(Z)-dien-3-one-21-carboxylic acid γ-lactone]",Androgen receptor Competition factor,androgen receptor,5.2
same,Mineralocorticoid receptor (MR) Competition factor,[1],2.6
same,IC50,[2],89 nM
same,Emax,[2]; MDCK,115%
"C[C@]12CC[C@H]3[C@@H](CCC4=C(Cl)C(=O)CC[C@@H]43)[C@@H]1[C@H]1C[C@H]1[C@@]21C=CC(=O)O1 [Example 18, 4-Chloro-17β-hydroxy-15α,16α-methylene-19-nor-17α-pregna-4,20(Z)-dien-3-one-21-carboxylic acid γ-lactone]",Androgen receptor Competition factor,androgen receptor,7.3
same,Mineralocorticoid receptor (MR) Competition factor,[1],35.0
same,IC50,[2],830 nM
same,Emax,[2]; MDCK,37.3%
"C[C@]12CC[C@H]3[C@@H](CCC4=CC(=O)CC[C@@H]43)[C@@H]1[C@@H]1C[C@@H]1[C@@]21C=CC(=O)O1 [Example 19, 17β-Hydroxy-15β,16β-methylene-19-nor-17α-pregna-4,20(Z)-dien-3-one-21-carboxylic acid γ-lactone]",Androgen receptor Competition factor,androgen receptor,6.4
same,Mineralocorticoid receptor (MR) Competition factor,[1],187.0
same,IC50,[2],62 nM
same,Emax,[2]; MDCK,92.8%
"C[C@]12CC[C@H]3[C@@H](CC4(CC4)C4=CC(=O)CC[C@@H]43)[C@@H]1[C@@H]1C[C@@H]1[C@@]21C=CC(=O)O1 [Example 22, 6,6-(1,2-Ethanediyl)-17β-hydroxy-15β,16β-methylene-19-nor-17α-pregna-4,20(Z)dien-3-one-21-carboxylic acid γ-lactone]",Androgen receptor Competition factor,androgen receptor,2.0
same,Mineralocorticoid receptor (MR) Competition factor,[1],0.8
same,IC50,[2],49 nM
same,Emax,[2]; MDCK,91.2%
"C[C@@H]1CC2=CC(=O)CC[C@@H]2[C@H]2CC[C@@]3(C)[C@@H]([C@@H]4C[C@@H]4[C@@]34C=CC(=O)O4)[C@@H]21 [Example 23A, 17β-Hydroxy-7α-methyl-15β,16β-methylene-19-nor-17α-pregna-4,20(2)-dien-3-one-21-carboxylic acid γ-lactone]",Androgen receptor Competition factor,androgen receptor,4.2
same,Mineralocorticoid receptor (MR) Competition factor,[1],1.9
same,IC50,[2],290 nM
same,Emax,[2]; MDCK,105%
"CC[C@@H]1CC2=CC(=O)CC[C@@H]2[C@H]2CC[C@@]3(C)[C@@H]([C@@H]4C[C@@H]4[C@@]34C=CC(=O)O4)[C@H]12 [Example 24A, 7α-Ethyl-17β-hydroxy-15β,16β-methylene-19-nor-17α-pregna-4,20(Z)-dien-3-one-21-carboxylic acid γ-lactone]",Androgen receptor Competition factor,androgen receptor,8.1
same,Mineralocorticoid receptor (MR) Competition factor,[1],1.9
same,IC50,[2],160 nM
same,Emax,[2]; MDCK,81.1%
"C=C[C@@H]1CC2=CC(=O)CC[C@@H]2[C@H]2CC[C@@]3(C)[C@@H]([C@@H]4C[C@@H]4[C@@]34C=CC(=O)O4)[C@@H]21 [Example 25A, 17β-Hydroxy-15β,16β-methylene-7α-vinyl-19-nor-17α-pregna-4,20(Z)-dien-3-one-21-carboxylic acid γ-lactone]",Androgen receptor Competition factor,androgen receptor,1.4
same,Mineralocorticoid receptor (MR) Competition factor,[1],9.4
same,IC50,[2],910 nM
same,Emax,[2]; MDCK,84.1%
"C[C@]12CC[C@H]3[C@@H](CCC4=C(Cl)C(=O)CC[C@@H]43)[C@@H]1[C@@H]1C[C@@H]1[C@@]21C=CC(=O)O1 [Example 27, 4-Chloro-17β-hydroxy-15β,16β-methylene-19-nor-17α-pregna-4,20(Z)-dien-3-one-21-carboxylic acid γ-lactone]",Androgen receptor Competition factor,androgen receptor,36.4
same,Mineralocorticoid receptor (MR) Competition factor,[1],47.0
same,IC50,[2],1000 nM
same,Emax,[2]; MDCK,5%
